According to patent US20230398101A1, “Co-agents as Therapy Against Anaerobic Pathogens” (priority 2022, published 2023):
Where two headings read alike, the source gives them in different places.

Columns and labels:
Lactobacillus gasseri = test: AST (MIC) of beneficial or mutualistic facultative anaerobic bacteria; type: cell-based
[1] = test system: Aggretibacter actinomycetemcomitans; test: Anaerobic agar-dilution AST (MIC, checkerboard FIC); type: cell-based; conditions: strain D751, anaerobic
Porphyromonas gingivalis = test: as above; type: cell-based; conditions: ATCC33277
Escherichia coli = test: Post-antibiotic effect (PAE) in vitro, viable counts; conditions: Escherichia coli ATCC 25922
Staphylococcus aureus [2] = test: Aerobic agar-dilution AST of facultative anaerobes (MIC, checkerboard FIC); type: cell-based; conditions: Staphylococcus aureus, read-out: MIC
Pediococcus pentosaceus = test: AST (MIC) of beneficial or mutualistic facultative anaerobic bacteria; type: cell-based
[3] = test system: Burkholderia thailandensis; test: microbe, parasite or virus in culture; type: cell-based; conditions: ATCC700388, pH 7
Bifidobacterium animalis = test: Anaerobic agar-dilution AST (MIC, checkerboard FIC); type: cell-based
Phocaeicola vulgatus = test: as above; type: cell-based; conditions: for MIC vs clinical breakpoint (susceptibility): anaerobic (Table 17)
Pediococcus acidilactici = test: AST (MIC) of beneficial or mutualistic facultative anaerobic bacteria; type: cell-based
[4] = test system: Lactobacillus acidophilus; test: as above; type: cell-based
[5] = test system: facultative anaerobic pathogens; test: microbe, parasite or virus in culture; type: cell-based
Enterococcus faecalis = test: Aerobic agar-dilution AST of facultative anaerobes (MIC, checkerboard FIC); type: cell-based
Staphylococcus aureus [6] = test: Post-antibiotic effect (PAE) in vitro, viable counts; conditions: Staphylococcus aureus ATCC 33591 (beta-lactam resistant)
Klebsiella pneumoniae = test: Aerobic agar-dilution AST of facultative anaerobes (MIC, checkerboard FIC); type: cell-based
Lactobacillus plantarum = test: AST (MIC) of beneficial or mutualistic facultative anaerobic bacteria; type: cell-based; conditions: Lactiplantibacillus plantarum
Acinetobacter baumannii = test: Aerobic agar-dilution AST of facultative anaerobes (MIC, checkerboard FIC); type: cell-based
Clostridium septicum = test: Anaerobic agar-dilution AST (MIC, checkerboard FIC); type: cell-based; conditions: for MIC vs clinical breakpoint (susceptibility): anaerobic (Table 17); for MIC: Clostridium septicum
Clostridioides difficile = test: as above; type: cell-based; conditions: for MIC vs clinical breakpoint (susceptibility): anaerobic (Table 17)
[7] = test system: Leuconostoc mesenteroides; test: AST (MIC) of beneficial or mutualistic facultative anaerobic bacteria; type: cell-based

Compound: C[C@@H]1O[C@@H]1P(=O)(O)O [F, fosfomycin sodium]
- MIC (Lactobacillus gasseri): > 128 mg/L
- MIC [1]: 16 mg/L
- MIC (Porphyromonas gingivalis): > 128 mg/L
- PAE (Escherichia coli; exposure μg/ml: F 1, D/S 0.5/9.5, CAv 4/8, F/D/S 0.125/0.125/2.38, F/D/S/CAv 0.06/0.03/0.6/4/0.25): 0.5 h
- PAE (Escherichia coli; exposure μg/ml: F 2, D/S 1/19, CAv 4/16, F/D/S 0.25/0.25/4.75, F/D/S/CAv 0.125/0.06/1.19/4/0.5): 0.5 h
- PAE (Escherichia coli; exposure μg/ml: F 4, D/S 2/38, CAv 4/32, F/D/S 0.5/0.5/9.5, F/D/S/CAv 0.25/0.125/2.38/4/1): 1 h
- PAE (Escherichia coli; exposure μg/ml: F 8): 1.5 h
- MIC (Staphylococcus aureus [2]; ATCC33591, Staphylococcus aureus ATCC 33591 (Table 15)): 4 mg/L
- MIC (Staphylococcus aureus [2]; Staphylococcus aureus 829025): 8 mg/L
- MIC (Staphylococcus aureus [2]; Staphylococcus aureus 894946): 8 mg/L
- MIC (Staphylococcus aureus [2]; Staphylococcus aureus 920576): 8 mg/L
- MIC (Staphylococcus aureus [2]; Staphylococcus aureus 920962): 8 mg/L
- MIC (Staphylococcus aureus [2]; Staphylococcus aureus 927596): 8 mg/L
- MIC (Staphylococcus aureus [2]; Staphylococcus aureus 952566 (Table 15)): > 16 mg/L
- MIC (Staphylococcus aureus [2]; Staphylococcus aureus 952566 (Tables 14A/14B)): 8 mg/L
- MIC (Staphylococcus aureus [2]; Staphylococcus aureus 953041 (Table 15)): 4 mg/L
- MIC (Staphylococcus aureus [2]; Staphylococcus aureus 956270): 8 mg/L
- MIC (Staphylococcus aureus [2]; Staphylococcus aureus 956362): 8 mg/L
- MIC (Staphylococcus aureus [2]; Staphylococcus aureus 981550 (Table 15)): 16 mg/L
- MIC (Staphylococcus aureus [2]; Staphylococcus aureus 981550 (Tables 14A/14B)): 8 mg/L
- MIC (Staphylococcus aureus [2]; Staphylococcus aureus 994946): 2 mg/L
- MIC (Staphylococcus aureus [2]; Staphylococcus aureus 1022425): 16 mg/L
- MIC (Staphylococcus aureus [2]; Staphylococcus aureus 1045190): 8 mg/L
- MIC (Staphylococcus aureus [2]; strain (MR) 829025, aerobic): 4 mg/L
- MIC (Staphylococcus aureus [2]; strain (MR) 884649, aerobic): 8 mg/L
- MIC (Staphylococcus aureus [2]; strain (MR) 903887, aerobic): 8 mg/L
- MIC (Staphylococcus aureus [2]; strain (MR) 918019, aerobic): 4 mg/L
- MIC (Staphylococcus aureus [2]; strain (MR) 920516, aerobic): 4 mg/L
- MIC (Staphylococcus aureus [2]; strain (MR) 927596, aerobic): 8 mg/L
- MIC (Staphylococcus aureus [2]; strain (MR) 956270, aerobic): 4 mg/L
- MIC (Staphylococcus aureus [2]; strain (MR) 956362, aerobic): 8 mg/L
- MIC (Staphylococcus aureus [2]; strain (MR) 967287, aerobic): 8 mg/L
- MIC (Staphylococcus aureus [2]; strain (MR) 974980, aerobic): 8 mg/L
- MIC (Staphylococcus aureus [2]; strain (MR) 979234, aerobic): 8 mg/L
- MIC (Staphylococcus aureus [2]; strain (MR) 981550, aerobic): 4 mg/L
- MIC (Staphylococcus aureus [2]; strain (MR) 1022425, aerobic): 8 mg/L
- MIC (Staphylococcus aureus [2]; strain (MR) 1045190, aerobic): 4 mg/L
- MIC (Pediococcus pentosaceus): > 128 mg/L
- MIC [3]: 64000 mg/L
- MIC (Bifidobacterium animalis; Bifidobacterium animalis): 128 mg/L
- MIC vs clinical breakpoint (susceptibility) (Bifidobacterium animalis; Bifidobacterium animalis JLP-002, anaerobic (Table 17)): −
- MIC (Bifidobacterium animalis; Bifidobacterium animalis TBC0002, anaerobic): 32 mg/L
- MIC (Bifidobacterium animalis; Bifidobacterium animalis, Bifidobacterium animalis TBC0002, anaerobic, read-out: MIC): 64 mg/L
- susceptibility (Bifidobacterium animalis; Bifidobacterium, anaerobic): no susceptibility
- MIC (Bifidobacterium animalis; strain TBC0002, anaerobic): 128 mg/L
- MIC vs clinical breakpoint (susceptibility) (Phocaeicola vulgatus; Phocaeicola vulgatus ATCC 8482): −
- MIC vs clinical breakpoint (susceptibility) (Phocaeicola vulgatus; Phocaeicola vulgatus ATCC 29327): −
- MIC (Phocaeicola vulgatus; Phocaeicola vulgatus, ATCC8482, strain ATCC 8482, anaerobic): > 128 mg/L
- MIC (Phocaeicola vulgatus; Phocaeicola vulgatus, ATCC29327, Phacoeicola vulgatus ATCC 29327, anaerobic): 128 mg/L
- MIC (Phocaeicola vulgatus; Phocaeicola vulgatus, ATCC29327, strain ATCC 29327, anaerobic): > 128 mg/L
- MIC (Phocaeicola vulgatus; Phocaeicola vulgatus, ATCC29327, strain ATCC 29327, anaerobic, read-out: MIC): 64 mg/L
- MIC (Phocaeicola vulgatus; Phocaeicola vulgatus, Phacoeicola vulgatus TCC 8482, anaerobic): > 128 mg/L
- MIC (Phocaeicola vulgatus; strain ATCC 8482, anaerobic): 128 mg/L
- MIC (Pediococcus acidilactici): > 128 mg/L
- MIC [4]: > 128 mg/L
- MIC ([5]; Bacillus cereus, ATCC14579, pH 7, read-out: MIC): 64000 mg/L
- MIC ([5]; Bacillus cereus, ATCC14579, pH 8, read-out: MIC): 32000 mg/L
- MIC ([5]; Bacillus cereus, pH 5, read-out: MIC): 4000 mg/L
- MIC ([5]; Bacillus subtilis, pH 5, read-out: MIC): 64000 mg/L
- MIC ([5]; Yersinia pseudotuberculosis, ATCC6905, pH 7): 64000 mg/L
- MIC ([5]; Yersinia pseudotuberculosis, pH 5): 2000 mg/L
- MIC (Enterococcus faecalis; Enterococcus faecalis): > 128 mg/L
- MIC (Enterococcus faecalis; Enterococcus faecalis 108, pH 5, read-out: MIC): 8000 mg/L
- MIC (Enterococcus faecalis; Enterococcus faecalis 1086432, pH 7, read-out: MIC): 64000 mg/L
- MIC (Enterococcus faecalis; Enterococcus faecalis, ATCC51559): > 128 mg/L
- PAE (Staphylococcus aureus [6]; exposure μg/ml: F 16, D/S 1/19, V 4, F/D/S 4/0.25/4.75, F/D/S/V 2/0.125/2.38/0.5): 0.5 h
- PAE (Staphylococcus aureus [6]; exposure μg/ml: F 32, D/S 2/38, V 8, F/D/S 8/0.5/9,5, F/D/S/V 4/0.25/4.75/1): 0.5 h
- PAE (Staphylococcus aureus [6]; exposure μg/ml: F 64, D/S 4/64, V 16, F/D/S 16/1/19, F/D/S/V 8/0.5/9.5/2): 0.5 h
- MIC (Klebsiella pneumoniae; Klebsiella pneumoniae 870964): 64 mg/L
- MIC (Klebsiella pneumoniae; Klebsiella pneumoniae 875638): 64 mg/L
- MIC (Klebsiella pneumoniae; pH 5, Klebsiella pneumoniae 848788, pH 5): 64000 mg/L
- MIC (Klebsiella pneumoniae; strain 848788, aerobic): 32 mg/L
- MIC (Klebsiella pneumoniae; strain 857147, aerobic): 32 mg/L
- MIC (Klebsiella pneumoniae; strain 868968, aerobic): 8 mg/L
- MIC (Klebsiella pneumoniae; strain 869028, aerobic): 8 mg/L
- MIC (Klebsiella pneumoniae; strain 870964, aerobic): 8 mg/L
- MIC (Klebsiella pneumoniae; strain 875638, aerobic): 16 mg/L
- MIC (Klebsiella pneumoniae; strain 892483, aerobic): 4 mg/L
- MIC (Klebsiella pneumoniae; strain 926439, aerobic): 4 mg/L
- MIC (Klebsiella pneumoniae; strain 926456, aerobic): 64 mg/L
- MIC (Klebsiella pneumoniae; strain 939665, aerobic): 64 mg/L
- MIC (Klebsiella pneumoniae; strain 957464, aerobic): 16 mg/L
- MIC (Klebsiella pneumoniae; strain 957467, aerobic): 16 mg/L
- MIC (Klebsiella pneumoniae; strain 984643, aerobic): 16 mg/L
- MIC (Klebsiella pneumoniae; strain 993434, aerobic): 16 mg/L
- MIC (Klebsiella pneumoniae; strain 995460, aerobic): 16 mg/L
- MIC (Klebsiella pneumoniae; strain 1040205, aerobic): 16 mg/L
- MIC (Lactobacillus plantarum): > 128 mg/L
- MIC (Acinetobacter baumannii): > 128 mg/L
- MIC (Acinetobacter baumannii; pH 7, Acinetobacter baumannii 918857, pH 7, read-out: MIC): 64000 mg/L
- MIC (Acinetobacter baumannii; strain 843978, aerobic, read-out: MIC): 8 mg/L
- MIC (Acinetobacter baumannii; strain 918857, aerobic, read-out: MIC): 64 mg/L
- MIC (Acinetobacter baumannii; strain 919656, aerobic, read-out: MIC): 8 mg/L
- MIC (Acinetobacter baumannii; strain 919899, aerobic, read-out: MIC): 8 mg/L
- MIC (Acinetobacter baumannii; strain 938781, aerobic, read-out: MIC): 16 mg/L
- MIC (Acinetobacter baumannii; strain 1049160, aerobic, read-out: MIC): 8 mg/L
- MIC vs clinical breakpoint (susceptibility) (Clostridium septicum; Clostridium septicum 11-3571): +
- MIC vs clinical breakpoint (susceptibility) (Clostridium septicum; Clostridium septicum 15-847): +
- MIC (Clostridium septicum; strain 11-3571, anaerobic): 16 mg/L
- MIC (Clostridium septicum; strain 15-847, anaerobic): 32 mg/L
- MIC vs clinical breakpoint (susceptibility) (Clostridioides difficile; Clostridioides difficile 2-0247-4): +
- MIC vs clinical breakpoint (susceptibility) (Clostridioides difficile; Clostridioides difficile 3/8): +
- MIC vs clinical breakpoint (susceptibility) (Clostridioides difficile; Clostridioides difficile 10-3620-5): +
- MIC (Clostridioides difficile; Clostridioides difficile, Clostridioides difficile 3/8, anaerobic, read-out: MIC): 32 mg/L
- MIC (Clostridioides difficile; Clostridioides difficile, Clostridioides difficile 10-3620-5, anaerobic): 16 mg/L
- MIC (Clostridioides difficile; Clostridioides difficile, strain 2-0247-4, anaerobic, read-out: MIC): 16 mg/L
- MIC (Clostridioides difficile; Clostridioides difficile, strain 10-3620-5, anaerobic, read-out: MIC): 8 mg/L
- MIC (Clostridioides difficile; strain 2-0247-4, anaerobic): 32 mg/L
- MIC (Clostridioides difficile; strain 10-3620-5, anaerobic): 16 mg/L
- MIC [7]: > 128 mg/L
